Measurements taken from patent publication US8192962B2, “Processes for detecting toxic substances” (Daikin Industries, Ltd., priority 2001, dated 2012).

Test system: Metabolism protein genes
Assay: DNA chip mRNA expression in yeast, metabolism protein genes (Table 7)
Assay type: cell-based, Saccharomyces cerevisiae S288C
Procedure: Yeast (Saccharomyces cerevisiae S288C (α SUC2mal mel gap2 CUP1)) were incubated at 25° C. on YPD medium (yeast extract 1%, polypepton 2%, glucose 2%). One of toxic chemical substances was added to the cells at logarithmic growth phase, and the cells were further incubated for two hours. Cells were cultured without any chemical substance in the same condition, and were used as control. Concentrations of the chemical substances were defined to inhibit the growth of the yeast but not lead to death.
After completion of the incubation, the culture was centrifuged to collect the cells. To the cells, sodium acetate buffer (50 mM sodium acetate, 10 mM EDTA, 1% SDS) was added, and the mixture was shaken at 65° C. for five minutes, followed by returning to room temperature, and obtaining the supernatant, of which the procedures were repeated two times. To the supernatant, ½ amount of a solution of phenol/chloroform was added, and the mixture was centrifuged to give a supernatant, which was added with an equal amount of chloroform, and the mixture was centrifuged to give a supernatant. To the supernatant, an equal amount of isopropanol containing 0.3 M sodium acetate was added, and the mixture was allowed to stand at room temperature for 30 minutes, after which the mixture was centrifuged to give a sediment of the whole RNAs. Seventy % ethanol was added to the sediment, and the mixture was again centrifuged to give a sediment, which was then dried and dissolved in water. mRNA was isolated from the whole RNAs as followings. In view of the fact that a poly A chain is attached to the 3′ terminus of mRNA, a polynucleotide having a poly T structure which was immobilized on the surface of latex beads was used to trap the mRNA, and then the mRNA was washed and eluted with spine column (Oligotex-dT30<Super>mRNA Purification Kit, Takara). Reverse transcription of the mRNA was conducted with a reverse transcriptase (Super Script II Reverse Transcriptase; catalogue No. 18064-014, GibcoBRL) using fluorescence-labeled nucleotides to give cDNAs that were introduced with Cy3-dUTP or Cy5-dUTP during the reverse transcription.
The labeled cDNAs were dissolved in TE buffer (10mM Tris-HCl/1 mM EDTA, pH8.0), and the solution was dropped on the DNA chip containing the whole genes of yeast (DNA Chip Research Inc. Japan) so that the cDNAs were hybridized on the DNA chip at 65° C. for over 12 hours. The fluoresces intensity of the DNA chip was read with a scanner, and the ratio relative to the fluorescence intensity resulting from the absence of chemical substance was estimated as the following, which is shown in Tables 1 to 9: […]

[Cl][Hg][Cl] [(3), HgCl2]
The level of expressed mRNA in the presence of chemical substance/The level of expressed mRNA in the absence of chemical substance (yeast gene YAL012W): 10.4 | The level of expressed mRNA in the presence of chemical substance/The level of expressed mRNA in the absence of chemical substance (yeast gene YAL038W): 3.0 | level of expressed mRNA in the presence/in the absence of chemical substance (yeast gene YBR003W): 1.0 | level of expressed mRNA in the presence/in the absence of chemical substance (yeast gene YBR011C): 2.5 | level of expressed mRNA in the presence/in the absence of chemical substance (yeast gene YBR020W): 1.9 | The level of expressed mRNA in the presence of chemical substance/The level of expressed mRNA in the absence of chemical substance (yeast gene YBR023C): 1.3 | The level of expressed mRNA in the presence of chemical substance/The level of expressed mRNA in the absence of chemical substance (yeast gene YBR029C): 1.8 | The level of expressed mRNA in the presence of chemical substance/The level of expressed mRNA in the absence of chemical substance (yeast gene YBR183W): 2.0 | The level of expressed mRNA in the presence of chemical substance/The level of expressed mRNA in the absence of chemical substance (yeast gene YBR222C): 1.3 | The level of expressed mRNA in the presence of chemical substance/The level of expressed mRNA in the absence of chemical substance (yeast gene YBR256C): 0.6 | The level of expressed mRNA in the presence of chemical substance/The level of expressed mRNA in the absence of chemical substance (yeast gene YCL009C): 2.0 | The level of expressed mRNA in the presence of chemical substance/The level of expressed mRNA in the absence of chemical substance (yeast gene YCL064C): 0.8 | level of expressed mRNA in the presence/in the absence of chemical substance (yeast gene YCR010C): 1.6 | level of expressed mRNA in the presence/in the absence of chemical substance (yeast gene YCR034W): 2.5 | The level of expressed mRNA in the presence of chemical substance/The level of expressed mRNA in the absence of chemical substance (yeast gene YCR048W): 1.0 | The level of expressed mRNA in the presence of chemical substance/The level of expressed mRNA in the absence of chemical substance (yeast gene YCR098C): 1.7 | The level of expressed mRNA in the presence of chemical substance/The level of expressed mRNA in the absence of chemical substance (yeast gene YDR019C): 1.7 | level of expressed mRNA in the presence/in the absence of chemical substance (yeast gene YDR050C): 2.3 | level of expressed mRNA in the presence/in the absence of chemical substance (yeast gene YDR073W): 0.7 | level of expressed mRNA in the presence/in the absence of chemical substance (yeast gene YDR123C): 0.4 | level of expressed mRNA in the presence/in the absence of chemical substance (yeast gene YDR178W): 3.4 | level of expressed mRNA in the presence/in the absence of chemical substance (yeast gene YDR277C): 1.0 | level of expressed mRNA in the presence/in the absence of chemical substance (yeast gene YDR284C): 3.0 | level of expressed mRNA in the presence/in the absence of chemical substance (yeast gene YDR345C): 5.6 | The level of expressed mRNA in the presence of chemical substance/The level of expressed mRNA in the absence of chemical substance (yeast gene YDR380W): 0.8 | level of expressed mRNA in the presence/in the absence of chemical substance (yeast gene YDR400W): 2.2 | level of expressed mRNA in the presence/in the absence of chemical substance (yeast gene YDR408C): 1.4 | level of expressed mRNA in the presence/in the absence of chemical substance (yeast gene YDR483W): 1.3 | The level of expressed mRNA in the presence of chemical substance/The level of expressed mRNA in the absence of chemical substance (yeast gene YDR497C): 0.6 | The level of expressed mRNA in the presence of chemical substance/The level of expressed mRNA in the absence of chemical substance (yeast gene YDR502C): 2.4 | The level of expressed mRNA in the presence of chemical substance/The level of expressed mRNA in the absence of chemical substance (yeast gene YDR516C): 7.8 | level of expressed mRNA in the presence/in the absence of chemical substance (yeast gene YEL063C): 2.4 | level of expressed mRNA in the presence/in the absence of chemical substance (yeast gene YER015W): 1.1 | The level of expressed mRNA in the presence of chemical substance/The level of expressed mRNA in the absence of chemical substance (yeast gene YER026C): 3.3 | The level of expressed mRNA in the presence of chemical substance/The level of expressed mRNA in the absence of chemical substance (yeast gene YER053C): 1.9 | The level of expressed mRNA in the presence of chemical substance/The level of expressed mRNA in the absence of chemical substance (yeast gene YER069W): 3.3 | level of expressed mRNA in the presence/in the absence of chemical substance (yeast gene YER081W): 2.7 | The level of expressed mRNA in the presence of chemical substance/The level of expressed mRNA in the absence of chemical substance (yeast gene YER096W): 2.0 | level of expressed mRNA in the presence/in the absence of chemical substance (yeast gene YER120W): 2.5 | The level of expressed mRNA in the presence of chemical substance/The level of expressed mRNA in the absence of chemical substance (yeast gene YER178W): 3.6 | level of expressed mRNA in the presence/in the absence of chemical substance (yeast gene YFL011W): 3.7 | The level of expressed mRNA in the presence of chemical substance/The level of expressed mRNA in the absence of chemical substance (yeast gene YFL014W): 5.7 | The level of expressed mRNA in the presence of chemical substance/The level of expressed mRNA in the absence of chemical substance (yeast gene YFL030W): 3.1 | The level of expressed mRNA in the presence of chemical substance/The level of expressed mRNA in the absence of chemical substance (yeast gene YFL031W): 2.1 | The level of expressed mRNA in the presence of chemical substance/The level of expressed mRNA in the absence of chemical substance (yeast gene YFL056C): 2.3 | The level of expressed mRNA in the presence of chemical substance/The level of expressed mRNA in the absence of chemical substance (yeast gene YFL057C): 1.5 | The level of expressed mRNA in the presence of chemical substance/The level of expressed mRNA in the absence of chemical substance (yeast gene YFR047C): 2.7 | level of expressed mRNA in the presence/in the absence of chemical substance (yeast gene YGL012W): 3.0 | The level of expressed mRNA in the presence of chemical substance/The level of expressed mRNA in the absence of chemical substance (yeast gene YGL022W): 1.4 | level of expressed mRNA in the presence/in the absence of chemical substance (yeast gene YGL115W): 1.2 | The level of expressed mRNA in the presence of chemical substance/The level of expressed mRNA in the absence of chemical substance (yeast gene YGL126W): 1.4 | level of expressed mRNA in the presence/in the absence of chemical substance (yeast gene YGL205W): 0.7 | The level of expressed mRNA in the presence of chemical substance/The level of expressed mRNA in the absence of chemical substance (yeast gene YGL209W): 1.1 | The level of expressed mRNA in the presence of chemical substance/The level of expressed mRNA in the absence of chemical substance (yeast gene YGL248W): 0.9 | The level of expressed mRNA in the presence of chemical substance/The level of expressed mRNA in the absence of chemical substance (yeast gene YGR037C): 2.2 | The level of expressed mRNA in the presence of chemical substance/The level of expressed mRNA in the absence of chemical substance (yeast gene YGR055W): 12.0 | level of expressed mRNA in the presence/in the absence of chemical substance (yeast gene YGR096W): 1.1 | level of expressed mRNA in the presence/in the absence of chemical substance (yeast gene YGR191W): 1.6 | The level of expressed mRNA in the presence of chemical substance/The level of expressed mRNA in the absence of chemical substance (yeast gene YGR194C): 1.3 | level of expressed mRNA in the presence/in the absence of chemical substance (yeast gene YGR204W): 2.7 | The level of expressed mRNA in the presence of chemical substance/The level of expressed mRNA in the absence of chemical substance (yeast gene YGR256W): 2.3 | The level of expressed mRNA in the presence of chemical substance/The level of expressed mRNA in the absence of chemical substance (yeast gene YGR282C): 4.6 | level of expressed mRNA in the presence/in the absence of chemical substance (yeast gene YGR288W): 1.0 | level of expressed mRNA in the presence/in the absence of chemical substance (yeast gene YHR025W): 2.4 | The level of expressed mRNA in the presence of chemical substance/The level of expressed mRNA in the absence of chemical substance (yeast gene YHR111W): 0.8 | level of expressed mRNA in the presence/in the absence of chemical substance (yeast gene YHR123W): 1.8 | The level of expressed mRNA in the presence of chemical substance/The level of expressed mRNA in the absence of chemical substance (yeast gene YHR137W): 2.4 | The level of expressed mRNA in the presence of chemical substance/The level of expressed mRNA in the absence of chemical substance (yeast gene YHR174W): 3.3 | The level of expressed mRNA in the presence of chemical substance/The level of expressed mRNA in the absence of chemical substance (yeast gene YHR176W): 1.1 | level of expressed mRNA in the presence/in the absence of chemical substance (yeast gene YHR210C): 0.6 | level of expressed mRNA in the presence/in the absence of chemical substance (yeast gene YIL006W): 1.4 | The level of expressed mRNA in the presence of chemical substance/The level of expressed mRNA in the absence of chemical substance (yeast gene YIL045W): 1.9 | The level of expressed mRNA in the presence of chemical substance/The level of expressed mRNA in the absence of chemical substance (yeast gene YIL107C): 1.1 | The level of expressed mRNA in the presence of chemical substance/The level of expressed mRNA in the absence of chemical substance (yeast gene YIL154C): 1.9 | The level of expressed mRNA in the presence of chemical substance/The level of expressed mRNA in the absence of chemical substance (yeast gene YIL155C): 1.4 | The level of expressed mRNA in the presence of chemical substance/The level of expressed mRNA in the absence of chemical substance (yeast gene YIR034C): 2.5 | The level of expressed mRNA in the presence of chemical substance/The level of expressed mRNA in the absence of chemical substance (yeast gene YIR036C): 2.6 | The level of expressed mRNA in the presence of chemical substance/The level of expressed mRNA in the absence of chemical substance (yeast gene YJL031C): 0.5 | The level of expressed mRNA in the presence of chemical substance/The level of expressed mRNA in the absence of chemical substance (yeast gene YJL068C): 3.4 | The level of expressed mRNA in the presence of chemical substance/The level of expressed mRNA in the absence of chemical substance (yeast gene YJL088W): 2.2 | The level of expressed mRNA in the presence of chemical substance/The level of expressed mRNA in the absence of chemical substance (yeast gene YJL099W): 0.3 | level of expressed mRNA in the presence/in the absence of chemical substance (yeast gene YJL121C): 1.9 | level of expressed mRNA in the presence/in the absence of chemical substance (yeast gene YJL167W): 1.4 | The level of expressed mRNA in the presence of chemical substance/The level of expressed mRNA in the absence of chemical substance (yeast gene YJL172W): 1.8 | level of expressed mRNA in the presence/in the absence of chemical substance (yeast gene YJL216C): 2.2 | The level of expressed mRNA in the presence of chemical substance/The level of expressed mRNA in the absence of chemical substance (yeast gene YJL219W): 3.1 | level of expressed mRNA in the presence/in the absence of chemical substance (yeast gene YJR077C): 2.0 | The level of expressed mRNA in the presence of chemical substance/The level of expressed mRNA in the absence of chemical substance (yeast gene YJR137C): 4.6 | level of expressed mRNA in the presence/in the absence of chemical substance (yeast gene YJR143C): 2.1 | The level of expressed mRNA in the presence of chemical substance/The level of expressed mRNA in the absence of chemical substance (yeast gene YJR148W): 2.0
